Assay results: patent publication US5112810A, “Method for treating multiple sclerosis” (Mitsui Pharmaceuticals, Inc., priority 1981, dated 1992)
Where a SMILES comes first, the peptide text is derived from it. [ ]: non-standard residue; d: D form. pGlu = O=C1CC[C@@H](C(=O)O)N1

Test system: male Hartley guinea pig
Experiment: Toxicity (Experiment 3)
Type: in vivo
Settings: FTS 100 mg/kg
Description: Toxicity was studied by treating a male Hartley guinea pig with FTS at a dose of 100 mg/kg and observing the animal for one-week. This animal was still alive at the end of one-week observation period.

C[C@H](NC(=O)[C@@H]1CCC(=O)N1)C(=O)N[C@@H](CCCCN)C(=O)N[C@@H](CO)C(=O)N[C@@H](CCC(N)=O)C(=O)NCC(=O)NCC(=O)N[C@@H](CO)C(=O)N[C@@H](CC(N)=O)C(=O)O [FTS, p-Glu-Ala-Lys-Ser-Gln-Gly-Gly-Ser-Asn-Oh] ([pGlu]AKSQGGSN-OH)
Toxicity: survival at the end of one-week observation: still alive
